Activity calls are given as the source filed them. No cut-off for these calls is given here.
Legend:
[1] = Antagonist activity at folate receptor in human KB cells after 2 hrs; format: cell-based
[2] = Antagonist activity at folate receptor in human KB cells after 2 hrs in presence of 100 uM folic acid; format: cell-based
KB [3] = test: Antitumor activity against FR-positive human KB cells xenografted in nu/nu mouse assessed as reduction in tumor growth at 2 umol/kg administered as single dose for 1 week; format: functional, cell-based
[4] = Toxicity in mouse xenografted with FR-positive human KB cells assessed as tissue degeneration at 300 nmol/kg administered as single dose for 1 week; format: cell-based; conditions: in vivo, 168 h
[5] = Toxicity in mouse xenografted with FR-positive human KB cells assessed as body weight loss at 300 nmol/kg administered as single dose and measured up to 96 days post tumor implantation; format: cell-based; conditions: in vivo, 2304 h
KB [6] = test: Antitumor activity against FR-positive human KB cells xenografted in nu/nu mouse at 300 nmol/kg administered as single dose for 1 week; format: functional, cell-based
[7] = Toxicity in mouse xenografted with FR-positive human KB cells assessed as body weight loss at 2 umol/kg administered as single dose for 1 week; format: cell-based; conditions: in vivo, 168 h

Compound | IC50 [1] [nM] | IC50 [2] [nM] | Activity (KB [3]) | Activity [4] | Activity [5] | Activity (KB [6]) | Activity [7]
C=C1C[C@H]2C(=O)Nc3cc(OCCCCCOc4cc(N)c(C(=O)N5CC(=C)C[C@H]5C5OCCN5C(=O)OCCSSC[C@H](NC(=O)[C@H](CC(=O)O)NC(=O)[C@H](CC(=O)O)NC(=O)[C@H](CCCNC(=N)N)NC(=O)[C@H](CC(=O)O)NC(=O)CC[C@H](NC(=O)c5ccc(NCc6cnc7nc(N)[nH]c(=O)c7n6)cc5)C(=O)O)C(=O)O)cc4OC)c(OC)cc3C(=O)N2C1 (some centres undefined) | 1.12 | 696 | – | – | – | – | –
C=C1C[C@@H](C2OCCN2C(=O)OCCSSC[C@@H](NC(=O)[C@H](CCC(=O)NC[C@H](O)[C@@H](O)[C@H](O)[C@H](O)CO)NC(=O)[C@@H](CCC(=O)O)NC(=O)[C@H](CCC(=O)NC[C@H](O)[C@@H](O)[C@H](O)[C@H](O)CO)NC(=O)[C@@H](CCC(=O)O)NC(=O)[C@H](CCC(=O)NC[C@H](O)[C@@H](O)[C@H](O)[C@H](O)CO)NC(=O)CC[C@H](NC(=O)c2ccc(NCc3cnc4nc(N)[nH]c(=O)c4n3)cc2)C(=O)O)C(=O)O)N(C(=O)c2cc(OC)c(OCCCCCOc3cc(N)c(C(=O)N4CC(=C)C[C@H]4C4OCCN4C(=O)OCCSSc4ccccn4)cc3OC)cc2N)C1 (some centres undefined) | 1.31 | 184 | Active | – | – | – | –
C=C1C[C@H]2C=Nc3cc(OCCCCCOc4cc(N)c(C(=O)N5CC(=C)C[C@H]5C5OCCN5C(=O)OCC(C)(C)SSCCC(=O)NCCNC(=O)CCOCCOCCOCCOCCNC(=O)CCN5C(=O)CC(SC[C@H](NC(=O)[C@H](CC(=O)O)NC(=O)[C@H](CC(=O)O)NC(=O)[C@H](CCCNC(=N)N)NC(=O)[C@H](CC(=O)O)NC(=O)CC[C@H](NC(=O)c6ccc(NCc7cnc8nc(N)[nH]c(=O)c8n7)cc6)C(=O)O)C(=O)O)C5=O)cc4OC)c(OC)cc3C(=O)N2C1 (some centres undefined) | 0.0522 | 3.78 | – | Toxic | Toxic | Active | –
C=C1C[C@@H](C2OCCN2C(=O)OCCSSC[C@@H](NC(=O)[C@H](CCC(=O)NC[C@H](O)[C@@H](O)[C@H](O)[C@H](O)CO)NC(=O)[C@@H](CCC(=O)O)NC(=O)[C@H](CCC(=O)NC[C@H](O)[C@@H](O)[C@H](O)[C@H](O)CO)NC(=O)[C@@H](CCC(=O)O)NC(=O)[C@H](CCC(=O)NC[C@H](O)[C@@H](O)[C@H](O)[C@H](O)CO)NC(=O)CC[C@H](NC(=O)c2ccc(NCc3cnc4nc(N)[nH]c(=O)c4n3)cc2)C(=O)O)C(=O)O)N(C(=O)c2cc(OC)c(OCCCCCOc3ccc(-c4nc5ccc(-c6nc7cc(N8CCN(C)CC8)ccc7[nH]6)cc5[nH]4)cc3)cc2N)C1 (some centres undefined) | 0.658 | 84.3 | Active | – | – | – | Toxic
